Test results taken from the NIST ThermoML archive (doi:10.1016/j.jct.2003.11.008).

Experiments:
[1] = excess molar enthalpy (molar enthalpy of mixing); xn = mol fraction of the nth substance listed; conditions: 318.15 K, 101.3 kPa, Liquid
[2] = xn = mol fraction of the nth substance listed; conditions: 318.15 K, 101.3 kPa, Liquid

CCCCCCCCCCCCCCCCC [heptadecane] + CCCOC(C)=O
Conditions | excess molar enthalpy [kcal/mol] | excess molar volume [m3/mol]
[1], x2 = 0.0838 | 0.115 | –
[1], x2 = 0.1596 | 0.208 | –
[1], x2 = 0.2462 | 0.301 | –
[1], x2 = 0.3255 | 0.371 | –
[1], x2 = 0.3884 | 0.406 | –
[1], x2 = 0.4477 | 0.435 | –
[1], x2 = 0.4925 | 0.447 | –
[1], x2 = 0.5313 | 0.451 | –
[1], x2 = 0.5702 | 0.451 | –
[1], x2 = 0.6288 | 0.438 | –
[1], x2 = 0.6644 | 0.424 | –
[1], x2 = 0.7023 | 0.403 | –
[1], x2 = 0.7423 | 0.38 | –
[1], x2 = 0.7826 | 0.346 | –
[1], x2 = 0.8239 | 0.308 | –
[1], x2 = 0.8654 | 0.262 | –
[1], x2 = 0.9064 | 0.203 | –
[1], x2 = 0.9452 | 0.138 | –
[1], x2 = 0.9772 | 0.0665 | –
[2], x2 = 0.2332 | – | 8.02e-07
[2], x2 = 0.3167 | – | 1.017e-06
[2], x2 = 0.4087 | – | 1.166e-06
[2], x2 = 0.4759 | – | 1.235e-06
[2], x2 = 0.5393 | – | 1.28e-06
[2], x2 = 0.5977 | – | 1.276e-06
[2], x2 = 0.6463 | – | 1.246e-06
[2], x2 = 0.6916 | – | 1.225e-06
[2], x2 = 0.7628 | – | 1.103e-06
[2], x2 = 0.8202 | – | 9.42e-07
[2], x2 = 0.891 | – | 6.77e-07
[2], x2 = 0.9375 | – | 4.38e-07
[2], x2 = 0.9705 | – | 2.25e-07

CCCCCCCCCCCCCCCCC [heptadecane] + COC(C)=O
Conditions | excess molar enthalpy [kcal/mol] | excess molar volume [m3/mol]
[1], x2 = 0.113 | 0.176 | –
[1], x2 = 0.2193 | 0.327 | –
[1], x2 = 0.3028 | 0.434 | –
[1], x2 = 0.3894 | 0.521 | –
[1], x2 = 0.4626 | 0.576 | –
[1], x2 = 0.5247 | 0.606 | –
[1], x2 = 0.5794 | 0.615 | –
[1], x2 = 0.6278 | 0.607 | –
[1], x2 = 0.6655 | 0.593 | –
[1], x2 = 0.6858 | 0.582 | –
[1], x2 = 0.7195 | 0.56 | –
[1], x2 = 0.7539 | 0.528 | –
[1], x2 = 0.7883 | 0.489 | –
[1], x2 = 0.8246 | 0.444 | –
[1], x2 = 0.861 | 0.398 | –
[1], x2 = 0.8938 | 0.346 | –
[1], x2 = 0.9264 | 0.29 | –
[1], x2 = 0.9502 | 0.236 | –
[1], x2 = 0.9763 | 0.145 | –
[2], x2 = 0.0872 | – | 4.73e-07
[2], x2 = 0.1719 | – | 9e-07
[2], x2 = 0.2901 | – | 1.422e-06
[2], x2 = 0.3832 | – | 1.742e-06
[2], x2 = 0.4682 | – | 1.916e-06
[2], x2 = 0.5391 | – | 1.999e-06
[2], x2 = 0.5988 | – | 2.022e-06
[2], x2 = 0.6524 | – | 1.981e-06
[2], x2 = 0.694 | – | 1.916e-06
[2], x2 = 0.7348 | – | 1.806e-06
[2], x2 = 0.7632 | – | 1.698e-06
[2], x2 = 0.8016 | – | 1.579e-06
[2], x2 = 0.827 | – | 1.455e-06
[2], x2 = 0.8469 | – | 1.363e-06
[2], x2 = 0.8704 | – | 1.246e-06
[2], x2 = 0.9208 | – | 9.07e-07
[2], x2 = 0.9545 | – | 5.89e-07
[2], x2 = 0.9807 | – | 2.74e-07

CCCCCOC(C)=O [pentyl ethanoate] + CCCCCCCCC
Conditions | excess molar enthalpy [kcal/mol] | excess molar volume [m3/mol]
[1], x1 = 0.0676 | 0.0718 | –
[1], x1 = 0.1364 | 0.126 | –
[1], x1 = 0.2097 | 0.173 | –
[1], x1 = 0.2818 | 0.207 | –
[1], x1 = 0.3491 | 0.228 | –
[1], x1 = 0.4124 | 0.239 | –
[1], x1 = 0.4692 | 0.243 | –
[1], x1 = 0.5191 | 0.239 | –
[1], x1 = 0.5639 | 0.232 | –
[1], x1 = 0.621 | 0.216 | –
[1], x1 = 0.6739 | 0.202 | –
[1], x1 = 0.7288 | 0.181 | –
[1], x1 = 0.7858 | 0.154 | –
[1], x1 = 0.8432 | 0.12 | –
[1], x1 = 0.8986 | 0.0826 | –
[1], x1 = 0.9529 | 0.0421 | –
[2], x1 = 0.0672 | – | 1.52e-07
[2], x1 = 0.1243 | – | 2.83e-07
[2], x1 = 0.1813 | – | 4.14e-07
[2], x1 = 0.2354 | – | 5.13e-07
[2], x1 = 0.3037 | – | 5.97e-07
[2], x1 = 0.3405 | – | 6.3e-07
[2], x1 = 0.3995 | – | 6.66e-07
[2], x1 = 0.4479 | – | 6.75e-07
[2], x1 = 0.5035 | – | 6.77e-07
[2], x1 = 0.5492 | – | 6.64e-07
[2], x1 = 0.6071 | – | 6.24e-07
[2], x1 = 0.6461 | – | 5.91e-07
[2], x1 = 0.685 | – | 5.48e-07
[2], x1 = 0.7852 | – | 4.49e-07
[2], x1 = 0.8739 | – | 3.42e-07
[2], x1 = 0.9451 | – | 2.1e-07

CCCCOC(C)=O [butyl ethanoate] + CCCCCCC
Conditions | excess molar enthalpy [kcal/mol] | excess molar volume [m3/mol]
[1], x1 = 0.0596 | 0.0656 | –
[1], x1 = 0.1274 | 0.12 | –
[1], x1 = 0.1982 | 0.165 | –
[1], x1 = 0.2667 | 0.196 | –
[1], x1 = 0.3335 | 0.218 | –
[1], x1 = 0.3922 | 0.23 | –
[1], x1 = 0.4492 | 0.235 | –
[1], x1 = 0.5003 | 0.236 | –
[1], x1 = 0.5104 | 0.235 | –
[1], x1 = 0.5381 | 0.234 | –
[1], x1 = 0.5567 | 0.232 | –
[1], x1 = 0.6057 | 0.224 | –
[1], x1 = 0.6593 | 0.211 | –
[1], x1 = 0.7144 | 0.19 | –
[1], x1 = 0.7729 | 0.161 | –
[1], x1 = 0.8331 | 0.126 | –
[1], x1 = 0.8932 | 0.0849 | –
[1], x1 = 0.9488 | 0.0439 | –
[2], x1 = 0.0555 | – | 1.92e-07
[2], x1 = 0.1132 | – | 3.36e-07
[2], x1 = 0.1672 | – | 4.34e-07
[2], x1 = 0.22 | – | 5.12e-07
[2], x1 = 0.2722 | – | 5.77e-07
[2], x1 = 0.3229 | – | 6.09e-07
[2], x1 = 0.3726 | – | 6.31e-07
[2], x1 = 0.4298 | – | 6.52e-07
[2], x1 = 0.4755 | – | 6.52e-07
[2], x1 = 0.5265 | – | 6.24e-07
[2], x1 = 0.5779 | – | 5.89e-07
[2], x1 = 0.6271 | – | 5.55e-07
[2], x1 = 0.6607 | – | 5.13e-07
[2], x1 = 0.7709 | – | 3.86e-07
[2], x1 = 0.8611 | – | 2.64e-07
[2], x1 = 0.9342 | – | 1.22e-07
